Reference: patent US11104674B2 (Hoffmann-La Roche Inc., priority 2016, dated 2021)

System: HBsAg
Assay: HBsAg assay (chemiluminescence immunoassay of secreted HBsAg)
Format: cell-based, HBV
Settings: Hepatitis B virus, HepG2.2.15, HBsAg secretion, HepG2.2.15 cells, CLIA of culture supernatant
Procedure: HepG2.2.15 cells (Acs et al. Proc Natl Acad Sci USA, 84, (1987), 4641-4), a constitutively HBV-expressing cell line were cultured in DMEM+Glutamax-I medium (Invitrogen, Carlsbad, Calif., USA), supplemented with 10% fetal bovine serum (Invitrogen) and G418 (Invitrogen) at a final concentration of 200 mg/L and maintained in 5% CO2 at 37° C.
HepG2.2.15 cells were seeded in duplicate into white, 96-well plates at 1.5×10^4 cells/well. The cells were treated with a three-fold serial dilution series of the compounds in DMSO. The final DMSO concentration in all wells was 1% and DMSO was used as no drug control.
The HBsAg chemiluminescence immunoassay (CLIA) kit (Autobio Diagnostics Co., Zhengzhou, China, Catalog number: CL0310-2) was used to measure the levels of secreted HBV antigens semi-quantitatively. For the detection 50 μL/well culture supernatant was used and HBsAg was quantified using HBsAg chemiluminescence immunoassay (CLIA) kit (Autobio Diagnostics Co., Zhengzhou, China, Catalog number: CL0310-2), 50 μL of the supernatant was transferred to the CLIA assay plate and 50 μL of enzyme conjugate reagent was added into each well. The plates were sealed and gently agitated for 1 hour at room temperature. The supernatant-enzyme-mixture was discarded and wells were washed 6 times with 300 μL of PBS.
The residual liquid was removed by plating the CLIA plate right side down on absorbent tissue paper. 25 μL of substrates A and B were added to each well. Luminance was measured using a luminometer (Mithras LB 940 Multimode Microplate Reader) after 10 minutes incubation. Dose-response curves were generated and the IC50 value was extrapolated by using the E-WorkBook Suite (ID Business Solutions Ltd., Guildford, UK). The IC50 was defined as the compound concentration (or conditioned media log dilution) at which HBsAg secretion was reduced by 50% compared to the no drug control.
The compounds according to formula I were tested for their capacity to inhibit HBsAg as described herein.

SMILES	IC50
CC1c2cnc(-c3ncccn3)nc2CCN1c1cc(F)cc(N2CCOC(C)(C)C2)n1 (stereo not shown) [Example 9, 4-[4-fluoro-6-(5-methyl-2-pyrimidin-2-yl-7,8-dihydro-5H-pyrido[4,3-d]pyrimidin-6-yl)-2-pyridyl]-2,2-dimethyl-morpholine]	0.029 µM
COC1CCN(c2cc(F)cc(N3CCc4nc(-c5ncccn5)ncc4C3C)n2)C1 (stereo not shown) [Example 21, 6-[4-fluoro-6-(3-methoxypyrrolidin-1-yl)-2-pyridyl]-5-methyl-2-pyrimidin-2-yl-7,8-dihydro-5H-pyrido[4,3-d]pyrimidine]	0.013 µM
CC1CCN(c2cc(F)nc(N3CCc4nc(-c5ncccn5)ncc4C3C)c2)C1=O (stereo not shown) [Example 152, 1-[2-Fluoro-6-(5-methyl-2-pyrimidin-2-yl-7,8-dihydro-5H-pyrido[4,3-d]pyrimidin-6-yl)-4-pyridyl]-3-methyl-pyrrolidin-2-one]	0.003 µM
CC1c2cnc(-c3ncccn3)nc2CCN1c1cc(NC2CNC2)cc(F)n1 (stereo not shown) [Example 121, N-(azetidin-3-yl)-2-fluoro-6-(5-methyl-2-pyrimidin-2-yl-7,8-dihydro-5H-pyrido[4,3-d]pyrimidin-6-yl)pyridin-4-amine]	0.496 µM
CCC1CN(c2cc(F)nc(N3CCc4nc(-c5ncccn5)ncc4C3C)c2)CCO1 (stereo not shown) [Example 6, 2-ethyl-4-[2-fluoro-6-(5-methyl-2-pyrimidin-2-yl-7,8-dihydro-5H-pyrido[4,3-d]pyrimidin-6-yl)-4-pyridyl]morpholine]	0.009 µM
CC1c2cnc(-c3ncccn3)nc2CCN1c1cc(N2CCC(C(=O)NS(C)(=O)=O)CC2)cc(F)n1 (stereo not shown) [Example 66, 1-[2-fluoro-6-(5-methyl-2-pyrimidin-2-yl-7,8-dihydro-5H-pyrido[4,3-d]pyrimidin-6-yl)-4-pyridyl]-N-methylsulfonyl-piperidine-4-carboxamide]	1.94 µM
CC1c2cnc(-c3ncccn3)nc2CCN1c1cc(N(C)S(=O)(=O)c2ccccc2)cc(F)n1 (stereo not shown) [Example 161, N-[2-Fluoro-6-(5-methyl-2-pyrimidin-2-yl-7,8-dihydro-5H-pyrido[4,3-d]pyrimidin-6-yl)-4-pyridyl]-N-methyl-benzenesulfonamide]	0.005 µM
CC1c2cnc(-c3ncccn3)nc2CCN1c1cc(F)nc(N2CCN(S(C)(=O)=O)CC2)c1 (stereo not shown) [Example 107, 6-[2-Fluoro-6-(4-methylsulfonylpiperazin-1-yl)-4-pyridyl]-5-methyl-2-pyrimidin-2-yl-7,8-dihydro-5H-pyrido[4,3-d]pyrimidine]	0.01 µM
CC1c2cnc(-c3ncccn3)nc2CCN1c1cc(F)cc(N2CCC(C(=O)NS(C)(=O)=O)CC2)n1 (stereo not shown) [Example 65, 1-[4-fluoro-6-(5-methyl-2-pyrimidin-2-yl-7,8-dihydro-5H-pyrido[4,3-d]pyrimidin-6-yl)-2-pyridyl]-N-methylsulfonyl-piperidine-4-carboxamide]	4.44 µM
CC1c2cnc(-c3ncccn3)nc2CCN1c1cc(F)cc(N2C3CCC2COC3)n1 (stereo not shown) [Example 11, 8-[4-fluoro-6-(5-methyl-2-pyrimidin-2-yl-7,8-dihydro-5H-pyrido[4,3-d]pyrimidin-6-yl)-2-pyridyl]-3-oxa-8-azabicyclo[3.2.1]octane]	0.188 µM
CC1c2cnc(-c3ncccn3)nc2CCN1c1cc(N2CC(C(N)=O)C2)cc(F)n1 (stereo not shown) [Example 82, 1-[2-fluoro-6-(5-methyl-2-pyrimidin-2-yl-7,8-dihydro-5H-pyrido[4,3-d]pyrimidin-6-yl)-4-pyridyl]azetidine-3-carboxamide]	0.149 µM
CC1c2cnc(-c3ncccn3)nc2CCN1c1cc(N2CCN(S(C)(=O)=O)CC2)cc(F)n1 (stereo not shown) [Example 58, 6-[6-fluoro-4-(4-methylsulfonylpiperazin-1-yl)-2-pyridyl]-5-methyl-2-pyrimidin-2-yl-7,8-dihydro-5H-pyrido[4,3-d]pyrimidine]	0.015 µM
CC1c2cnc(-c3ccccn3)nc2CCN1c1cc(F)cc(N2CCN(S(C)(=O)=O)CC2)n1 (stereo not shown) [Example 72, 6-[4-fluoro-6-(4-methylsulfonylpiperazin-1-yl)-2-pyridyl]-5-methyl-2-(2-pyridyl)-7,8-dihydro-5H-pyrido[4,3-d]pyrimidine]	0.058 µM
CC1c2cnc(-c3ncccn3)nc2CCN1c1cc(N2CC(C(=O)NS(C)(=O)=O)C2)cc(F)n1 (stereo not shown) [Example 64, 1-[2-fluoro-6-(5-methyl-2-pyrimidin-2-yl-7,8-dihydro-5H-pyrido[4,3-d]pyrimidin-6-yl)-4-pyridyl]-N-methylsulfonyl-azetidine-3-carboxamide]	2.38 µM
CC1c2cnc(-c3ncccn3)nc2CCN1c1cc(N2CCN(S(C)(=O)=O)C(C)(C)C2)cc(F)n1 (stereo not shown) [Example 100, 6-[4-(3,3-dimethyl-4-methylsulfonyl-piperazin-1-yl)-6-fluoro-2-pyridyl]-5-methyl-2-pyrimidin-2-yl-7,8-dihydro-5H-pyrido[4,3-d]pyrimidine]	0.013 µM
CC1c2cnc(-c3ncccn3)nc2CCN1c1cc(N2CCCC2C(N)=O)cc(F)n1 (stereo not shown) [Example 42, 1-[2-fluoro-6-(5-methyl-2-pyrimidin-2-yl-7,8-dihydro-5H-pyrido[4,3-d]pyrimidin-6-yl)-4-pyridyl]pyrrolidine-2-carboxamide]	0.319 µM
CC1c2cnc(-c3ccccn3)nc2CCN1c1cc(N2CCC(C(N)=O)C2)cc(F)n1 (stereo not shown) [Example 62, 1-[2-fluoro-6-[5-methyl-2-(2-pyridyl)-7,8-dihydro-5H-pyrido[4,3-d]pyrimidin-6-yl]-4-pyridyl]pyrrolidine-3-carboxamide]	0.035 µM
CC1c2cnc(-c3ncccn3)nc2CCN1c1cc(F)cc(N2CCOC(CC(=O)O)C2)n1 (stereo not shown) [Example 29, 2-[4-[4-fluoro-6-(5-methyl-2-pyrimidin-2-yl-7,8-dihydro-5H-pyrido[4,3-d]pyrimidin-6-yl)-2-pyridyl]morpholin-2-yl]acetic acid]	0.722 µM
CC1c2cnc(-c3ncccn3)nc2CCN1c1cc(F)cc(N2CCC2)n1 (stereo not shown) [Example 109, 6-[6-(azetidin-1-yl)-4-fluoro-2-pyridyl]-5-methyl-2-pyrimidin-2-yl-7,8-dihydro-5H-pyrido[4,3-d]pyrimidine]	0.021 µM
CC1c2cnc(-c3ncccn3)nc2CCN1c1cc(F)cc(NC2CCOCC2)n1 (stereo not shown) [Example 49, 4-fluoro-6-(5-methyl-2-pyrimidin-2-yl-7,8-dihydro-5H-pyrido[4,3-d]pyrimidin-6-yl)-N-tetrahydropyran-4-yl-pyridin-2-amine]	0.056 µM
CC1c2cnc(-c3ncccn3)nc2CCN1c1cc(NS(=O)(=O)c2ccccc2)cc(F)n1 (stereo not shown) [Example 77, N-[2-fluoro-6-(5-methyl-2-pyrimidin-2-yl-7,8-dihydro-5H-pyrido[4,3-d]pyrimidin-6-yl)-4-pyridyl]benzenesulfonamide]	0.554 µM
CC1c2cnc(-c3ncccn3)nc2CCN1c1cc(F)cc(N2CCCC2C(N)=O)n1 (stereo not shown) [Example 43, 1-[4-fluoro-6-(5-methyl-2-pyrimidin-2-yl-7,8-dihydro-5H-pyrido[4,3-d]pyrimidin-6-yl)-2-pyridyl]pyrrolidine-2-carboxamide]	0.134 µM
CC1c2cnc(-c3ncccn3)nc2CCN1c1cc(F)nc(N2CC(F)C2)c1 (stereo not shown) [Example 150, 6-[2-Fluoro-6-(3-fluoroazetidin-1-yl)-4-pyridyl]-5-methyl-2-pyrimidin-2-yl-7,8-dihydro-5H-pyrido[4,3-d]pyrimidine]	0.02 µM
CC1c2cnc(-c3ncccn3)nc2CCN1c1cc(N(C)C(=O)c2ccccc2)cc(F)n1 (stereo not shown) [Example 163, N-[2-Fluoro-6-(5-methyl-2-pyrimidin-2-yl-7,8-dihydro-5H-pyrido[4,3-d]pyrimidin-6-yl)-4-pyridyl]-N-methyl-benzamide]	0.091 µM
CC1c2cnc(-c3ncccn3)nc2CCN1c1cc(F)cc(N2CC(F)C2)n1 (stereo not shown) [Example 122, 6-[4-fluoro-6-(3-fluoroazetidin-1-yl)-2-pyridyl]-5-methyl-2-pyrimidin-2-yl-7,8-dihydro-5H-pyrido[4,3-d]pyrimidine]	0.028 µM
CC1c2cnc(-c3ncccn3)nc2CCN1c1cc(F)cc(N2CCOC(C(=O)O)C2)n1 (stereo not shown) [Example 27, 4-[4-fluoro-6-(5-methyl-2-pyrimidin-2-yl-7,8-dihydro-5H-pyrido[4,3-d]pyrimidin-6-yl)-2-pyridyl]morpholine-2-carboxylic acid]	3.76 µM
CC1c2cnc(-c3ncccn3)nc2CCN1c1cc(F)cc(N2CCN(CC(N)=O)CC2)n1 (stereo not shown) [Example 101, 2-[4-[4-fluoro-6-(5-methyl-2-pyrimidin-2-yl-7,8-dihydro-5H-pyrido[4,3-d]pyrimidin-6-yl)-2-pyridyl]piperazin-1-yl]acetamide]	0.06 µM
CC1CN(c2cc(F)cc(N3CCc4nc(-c5ncccn5)ncc4C3C)n2)CCO1 (stereo not shown) [Example 5, 4-[4-fluoro-6-(5-methyl-2-pyrimidin-2-yl-7,8-dihydro-5H-pyrido[4,3-d]pyrimidin-6-yl)-2-pyridyl]-2-methyl-morpholine]	0.02 µM
